The CheMixHub viscosity set

Test: xn = mol fraction of the nth substance listed

NCCN1CCNCC1 + NCCO.O=CO
viscosity [mPa·s], 100 kPa
Conditions | x2 = 0.2317 | x2 = 0.3408 | x2 = 0.4457 | x2 = 0.5468 | x2 = 0.6441 | x2 = 0.7379 | x2 = 0.8283
298.15 K | 130.1 | 250.1 | 379.1 | 466.9 | 462.4 | 357.8 | 264.9
303.15 K | 80.27 | 188.7 | 266.6 | 322.5 | 323.3 | 259 | 196.6
308.15 K | – | 136.2 | 191.3 | 230.5 | 234.9 | 192 | 149.1
313.15 K | – | 102.4 | 141.7 | 170 | 173.6 | 146.6 | 115.8
318.15 K | – | 78.62 | 106.8 | 127.9 | 131.8 | 113.7 | 91.74
323.15 K | – | 61.55 | 83.63 | 98.95 | 102.1 | 89.85 | 74.36

O=C(O)CC(O)C(=O)O (stereo not given) + C[N+](C)(C)CC(=O)[O-]
Conditions | viscosity [mPa·s]
318.15 K, 101 kPa, x2 = 0.5 | 42170

CC1(C)S[C@@H]2[C@H](NC(=O)[C@H](N)c3ccc(O)cc3)C(=O)N2[C@H]1C(=O)O + O
viscosity [mPa·s], 101 kPa
Conditions | x1 = 9e-06 | x1 = 1.8e-05 | x1 = 2e-05 | x1 = 3.2e-05 | x1 = 3.6e-05 | x1 = 5e-05 | x1 = 6.8e-05
305.15 K | 0.7741 | 0.7672 | 0.7642 | 0.7659 | 0.7708 | 0.7668 | 0.7686
310.15 K | 0.7042 | 0.7023 | 0.6984 | 0.6991 | 0.7032 | 0.7014 | 0.7026
315.15 K | 0.6458 | 0.6448 | 0.6386 | 0.6392 | 0.6469 | 0.6401 | 0.6421

Cc1cccnc1 + O
298.15 K, 101 kPa
Conditions | viscosity [mPa·s]
x1 = 0.02104 | 1.202
x1 = 0.04558 | 1.604
x1 = 0.2966 | 3.291
x1 = 0.6032 | 1.972

CCCC[N+](CCCC)(CCCC)CCCC.[Br-] + CCCCCCCCCO
101.3 kPa, x1 = 0.2
Conditions | viscosity [mPa·s]
293.15 K | 56.57
298.15 K | 43.65
303.15 K | 35.27
308.15 K | 28.53
313.15 K | 23.29
318.15 K | 19.13
323.15 K | 15.99

CCCCC(=O)O + CCCCCCCCCCO
viscosity [mPa·s], 100 kPa
Conditions | x1 = 0.0851 | x1 = 0.1742 | x1 = 0.2512 | x1 = 0.3616 | x1 = 0.4363 | x1 = 0.5587 | x1 = 0.6618 | x1 = 0.7474 | x1 = 0.8618 | x1 = 0.9312
293.15 K | 12.76 | 11.18 | 9.99 | 8.58 | 7.71 | 6.4 | 5.35 | 4.5 | 3.44 | 2.83
303.15 K | 8.73 | 7.68 | 6.9 | 5.97 | 5.41 | 4.56 | 3.89 | 3.35 | 2.65 | 2.25
313.15 K | 6.17 | 5.54 | 5.06 | 4.45 | 4.07 | 3.47 | 2.99 | 2.61 | 2.12 | 1.83
323.15 K | 4.49 | 4.09 | 3.79 | 3.38 | 3.12 | 2.7 | 2.37 | 2.1 | 1.75 | 1.55

Cc1cccc(N)c1 + C1CCCCC1
303.15 K, 101.33 kPa
Conditions | viscosity [mPa·s]
x1 = 0.2 | 0.95
x1 = 0.398 | 1.13
x1 = 0.559 | 1.35
x1 = 0.786 | 1.88

C=C1CCC2CC1C2(C)C (stereo not given) + Cc1ccccc1
viscosity [mPa·s], 101 kPa
Conditions | x2 = 0.2689 | x2 = 0.3867 | x2 = 0.4951 | x2 = 0.5953 | x2 = 0.6881 | x2 = 0.7744 | x2 = 0.8547 | x2 = 0.9298
303.15 K | 1.188 | 0.995 | 0.86 | 0.754 | 0.684 | 0.633 | 0.595 | 0.564
308.5 K | 1.112 | 0.93 | 0.803 | 0.703 | 0.642 | 0.595 | 0.565 | 0.536
313.15 K | 1.027 | 0.863 | 0.745 | 0.654 | 0.598 | 0.56 | 0.534 | 0.505

C=C1CCC2CC1C2(C)C (stereo not given) + CCCCCC
298.15 K, 101.33 kPa
Conditions | viscosity [mPa·s]
x2 = 0.0421 | 1.455
x2 = 0.0626 | 1.392
x2 = 0.2031 | 1.055
x2 = 0.2799 | 0.914
x2 = 0.3765 | 0.772
x2 = 0.4939 | 0.634
x2 = 0.5597 | 0.57
x2 = 0.6601 | 0.488
x2 = 0.7454 | 0.427
x2 = 0.8217 | 0.381
x2 = 0.8935 | 0.344
x2 = 0.9595 | 0.312

C1=Cc2cccc3cccc1c23 + CO
viscosity [mPa·s], 101 kPa
Conditions | 298.15 K | 303.15 K | 308.15 K | 313.15 K | 318.15 K
x1 = 0.00471 | 0.5715 | 0.5301 | 0.494 | 0.4598 | 0.436
x1 = 0.00731 | – | 0.5362 | 0.5036 | 0.4714 | 0.4405

CN1CCCN2CCCN=C12 + O
100 kPa
Conditions | viscosity [mPa·s]
294.96 K, x1 = 0.5035 | 29.2
296.8 K, x1 = 0.1982 | 23.1
296.87 K, x1 = 0.1982 | 24.9
298.43 K, x1 = 0.5035 | 23.6
298.43 K, x1 = 0.798 | 11.2
303.69 K, x1 = 0.1982 | 15.8
308.29 K, x1 = 0.5035 | 14
308.31 K, x1 = 0.798 | 7.6
313.13 K, x1 = 0.1982 | 11.5
318.19 K, x1 = 0.798 | 5.6

O=S(=O)([O-])[O-].O=S(=O)([O-])[O-].O=S(=O)([O-])[O-].[Al+3].[Al+3] + O
viscosity [mPa·s], 101 kPa
Conditions | 298.15 K | 323.15 K
x1 = 0.0016 | 1.12 | 0.597
x1 = 0.00272 | – | 0.734
x1 = 0.00291 | – | 0.743
x1 = 0.0032 | 1.36 | 0.695
x1 = 0.00384 | – | 0.839
x1 = 0.00482 | – | 0.96
x1 = 0.0053 | 1.93 | 0.925
x1 = 0.005932 | – | 1.074
x1 = 0.0071 | 2.44 | 1.15
x1 = 0.007109 | – | 1.242
x1 = 0.008241 | – | 1.431
x1 = 0.0087 | 3.17 | 1.44
x1 = 0.009379 | – | 1.686
x1 = 0.0105 | 4.21 | 1.82
x1 = 0.0106 | – | 1.989
x1 = 0.01197 | – | 2.398
x1 = 0.0123 | 5.95 | 2.41
x1 = 0.01327 | – | 2.919
x1 = 0.0145 | 8.96 | 3.43
x1 = 0.0147 | – | 3.571
x1 = 0.0154 | 10.5 | 3.96
x1 = 0.01608 | – | 4.31
x1 = 0.0161 | 11.8 | 4.33
x1 = 0.017 | 14.4 | 5.17
x1 = 0.01732 | – | 4.975
x1 = 0.0184 | 18 | 6.12
x1 = 0.01889 | – | 6.121

NCCNCCN + CCCCn1cc[n+](C)c1.F[B-](F)(F)F
Conditions | viscosity [mPa·s]
313.15 K, 101.33 kPa, x2 = 0.8948 | 46.45
